Assay [1] relates to OCUM-2MD3 cells. The experiment in a line: Cell growth inhibition, OCUM-2MD3 parent cells (Test Example 7). To be noted: OCUM-2MD3 parent cell. Format: cell-based, human.
In assay [2] the test system is AZD4547 resistant OCUM-2MD3 cells. The experiment in a line: Cell growth inhibition, AZD4547 resistant OCUM-2MD3 cells (Test Example 7). It counts as cell-based, human.
Assay [3] deals with OCUM-2MD3 cells. The note with it: Homo sapiens, OCUM-2MD3, 72 h.
Method: Human-derived gastric cancer OCUM-2MD3 cells, which overexpressed FGFR2, were subcultured daily in a Dulbecco's modified Eagle's medium (DMEM) containing 10% fetal bovine serum (FBS) at a cell density of not more than 80%. In order to initiate a test of the cell growth-inhibitory effect of the compounds, the OCUM-2MD3 cells were suspended in the above DMEM medium and seeded in a 96-well flat-bottom plate so that each well contained 3,000 cells. Then, the cells were cultured in an incubator containing 5% carbon dioxide gas at 37° C. for one day. […] The DMSO solution of the test compound was diluted with the medium used for cultivation, and the diluted solution was added to each well of the cell culture plate so that the final concentration of DMSO became 0.5%. Then, the cells were cultured in an incubator containing 5% carbon dioxide gas at 37° C. for 72 hours. The number of cells was measured at the time of the addition of the test compound and 72 hours later after culture by using a Cell Counting Kit-8 (produced by Dojindo Laboratories) according to a protocol recommended by Dojindo Laboratories. […] After completion of the reaction, the absorbance at a wavelength of 450 nm was measured by a microplate reader. […]
T: absorbance of well to which test compound was added
C: absorbance of well to which test compound was not added
C0: absorbance of well measured before addition of compound
The target in assay [4] is purified recombinant human FGFR2 protein (Homo sapiens (Human), UniProt P21802). Nature of the assay: Inhibitory effect on FGFR2 kinase activity (Test Example 1). It counts as biochemical. The note with it: ATP 75 μM.
Method: EDTA (final concentration: 30 mM) diluted with a separation buffer (Caliper Life Sciences, Inc.) was added thereto to terminate the kinase reaction. […] The level of phosphorylation was determined from the quantitative ratio.

Where two headings read alike, the source gives them in different places.

Sequence of purified recombinant human FGFR2 protein (P21802 22-821): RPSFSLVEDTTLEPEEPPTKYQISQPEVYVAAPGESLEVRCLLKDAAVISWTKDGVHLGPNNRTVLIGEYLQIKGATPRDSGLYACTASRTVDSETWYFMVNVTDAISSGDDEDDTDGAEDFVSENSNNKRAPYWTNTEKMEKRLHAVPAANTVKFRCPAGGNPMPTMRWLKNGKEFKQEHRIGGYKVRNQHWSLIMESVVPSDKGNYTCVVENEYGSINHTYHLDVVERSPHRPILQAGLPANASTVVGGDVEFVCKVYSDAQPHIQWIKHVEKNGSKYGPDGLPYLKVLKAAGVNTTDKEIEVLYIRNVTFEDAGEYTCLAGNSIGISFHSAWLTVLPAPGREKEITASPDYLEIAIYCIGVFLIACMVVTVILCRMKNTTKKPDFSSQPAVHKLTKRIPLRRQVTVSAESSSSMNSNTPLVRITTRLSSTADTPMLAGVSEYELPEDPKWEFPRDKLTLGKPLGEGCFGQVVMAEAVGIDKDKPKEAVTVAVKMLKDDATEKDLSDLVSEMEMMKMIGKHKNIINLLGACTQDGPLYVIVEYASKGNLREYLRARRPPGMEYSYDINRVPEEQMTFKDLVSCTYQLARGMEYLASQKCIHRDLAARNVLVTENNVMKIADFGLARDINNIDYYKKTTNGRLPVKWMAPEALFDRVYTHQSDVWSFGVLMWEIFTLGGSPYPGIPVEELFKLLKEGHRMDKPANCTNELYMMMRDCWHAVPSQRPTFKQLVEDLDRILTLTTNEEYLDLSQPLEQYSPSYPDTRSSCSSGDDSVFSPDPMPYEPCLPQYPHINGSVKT

Turning to `COc1cc(CCc2cc(NC(=O)c3ccc(N4CC(C)NC(C)C4)cc3)n[nH]2)cc(OC)c1` (centres unmarked) [AZD4547], the IC50 (in general, the concentration that inhibits the measured activity by half) in assay [1] amounted to 6.1 nM; in assay [2] (read-out: Cell growth inhibition, IC50 (nM) AZD4547 resistant cells, AZD4547 resistant OCUM-2MD3 cells, range in brackets) it was 159 nM.

On to `CCN1CCN(c2ccc(Nc3cc(N(C)C(=O)Nc4c(Cl)c(OC)cc(OC)c4Cl)ncn3)cc2)CC1` [BGJ398], for which the 50% inhibitory concentration (IC50) in assay [1] (Homo sapiens) was found to be 7.6 nM; in assay [2] (Homo sapiens, OCUM-2MD3, read-out: Cell growth inhibition, IC50 (nM) AZD4547 resistant cells), 55.6 nM.

With `CCOc1cc(C#Cc2nn(C3CN(C(=O)/C=C/CN(C)C)C3)c3ncnc(N)c23)cc(OCC)c1` [Ex. Compound 25, 1-(3-(4-amino-3-((3,5-diethoxyphenyl)ethynyl)-1H-pyrazolo[3,4-d]pyrimidin-1-yl)azetidin-1-yl)-4-(dimethylamino)but-2-en-1-one], the GI50 (commonly the concentration giving 50% growth inhibition) in assay [3] was 13 nM.

In assay [3], `C=CC(=O)N1C[C@@H](n2cc(C#Cc3cc(OC)cc(OC)c3)c3c(N)ncnc32)C[C@H]1C(=O)OC` [Ex. Compound 66, (2S,4S)-methyl 1-acryloyl-4-(4-amino-5-((3,5-dimethoxyphenyl)ethynyl)-7H-pyrrolo[2,3-d]pyrimidin-7-yl)pyrrolidine-2-carboxylate] registered a GI50 of less than 4.6 nM. Also, in assay [4], the IC50 is less than 0.3 nM.

As to `CC(C)c1cc(C#Cc2nn([C@H]3CCN(C(=O)/C=C/CN(C)C)C3)c3ncnc(N)c23)cc(C(C)C)c1` [Ref. Ex. Compound 4, (S)-1-(3-(4-amino-3-((3,5-diisopropylphenyl)ethynyl)-1H-pyrazolo[3,4-d]pyrimidin-1-yl)pyrrolidin-1-yl)-4-(dimethylamino)but-2-en-1-one], the IC50 in assay [4] is greater than 10000 nM.

For the origin of these results see US10124003B2, “Therapeutic agent for FGFR inhibitor-resistant cancer” (TAIHO PHARMACEUTICAL CO., LTD., priority 2013, dated 2018).
